Reference: PubChem BioAssay AID2060508 (Molecular Pharmacology Branch, DTP, NCI, 2025)
Where “and” joins values, the source holds several entries; their conditions need not be identical. Identical values can stand only once.

Test system: 454973-116-R2-J3-PDC spheroids, viability, % test/control
Experiment: Anticancer human tumor 454973-116-R2-J3-PDC patient-derived pancreatic carcinoma cell line growth inhibition [GQUAD]
Conditions: spheroids with HUVEC and MSC; for viability, T/C: stronger effect = lower value; for IC50: curve of compound
From the text: DNA G-quadruplex Stabilizer Agents in Combinations in Complex Spheroids
A high-throughput screen of multi-cell type tumor spheroids was designed to identify active combinations of DNA G-quadruplex stabilizer agents and targeted small molecules. Complex spheroids include a stromal component modeled by human endothelial cells (HUVEC) and fibroblasts modeled by human mesenchymal stem cells (MSCs). The concentration ranges selected for each drug and investigational agent were based upon clinically achievable concentrations if the clinical Cmax of the agent was known.
Compounds. The drugs and investigational agents: pidnarulex (CX-5461; NSC782164), APTO-253 (NSC789042), BRACO-19 (NSC847499), peposertib (NSC802822), ceralasertib (NSC780249), elimusertib (NSC800525), camonsertib (NSC841442), AZD-1390 (NSC803789), olaparib (NSC753686), talazoparib (NSC767125), ART-558 (NSC835418), sotorasib (NSC818433), MRTX-1133 (NSC836407), SN-38 (NSC673596), topotecan (NSC609699), etoposide (NSC141540), doxorubicin (NSC123127), gemcitabine (NSC613327), 5-fluorouracil (NSC19893), paclitaxel (NSC125973), vemurafenib (NSC761431), panobinostat (NSC761190), R-306465 (JNJ-16241199; NSC773264), adavosertib (NSC754352), TP-3654 (NSC805149), carboplatin (NSC241240), KSQ-4279 (NSC840948), and staurosporine (NSC755774) were obtained from the National Cancer Institute (NCI) Developmental Therapeutics Program Chemical Repository (34). The FDA-approved anticancer drug set is available from the NCI Developmental Therapeutics Program. […] The stock solutions were prepared in dimethyl sulfoxide (DMSO, Sigma-Aldrich, St. Louis, MO, cat. D2650) at 800-fold the tested concentration and stored at -70 degrees C prior to their use. All drugs and investigational agents were tested over a range starting from a high concentration at or near the clinical Cmax and decreasing in half-log increments. If the clinical Cmax for an agent had not been determined, the highest concentration tested was 10 microM.
2.3 Cell Culture. All cells were maintained in an incubator at 37 degrees C and 5% CO2 with 95% humidity. The PDC lines were cultured according to standard operating procedures established by the NCI PDMR. All PDCs were thawed and cultured in Matrigel-coated flasks prepared with a working solution of 1X Ham's F-12 nutrient mix, without supplementation (Invitrogen, cat. 11765054), 100 U/mL penicillin-streptomycin (Invitrogen, cat. 15140122), and 2.5% Matrigel (Corning Inc., cat. 354248) for the first three passages. The 857933-349-R-J2-PDC line was cultured in 6C/Colon 1B media, which includes advanced DMEM/F-12 (Thermo Fisher Scientific, cat. 12634028), 10 mM HEPES (Thermo Fisher Scientific, cat. 15630080), 1X GlutaMAX supplement (Thermo Fisher Scientific, cat. 35050061), 0.1 mg/mL primocin (InvivoGen, cat. ant-pm-2), 10% defined fetal bovine serum, heat inactivated (HyClone Laboratories Inc., cat. SH30070.03HI), 50% L-WRN conditioned media (ATCC, cat. CRL-3276), 1.25 mM N-Acetyl-L-cysteine (Sigma-Aldrich, cat. A9165), 10 mM nicotinamide (Sigma-Aldrich, cat. N0636), 1X B-27 supplement (Thermo Fisher Scientific, cat. 17504044), 1X N-2 supplement (Thermo Fisher Scientific, cat. 17502048), 10 microM Y-27632 dihydrochloride (Tocris Bioscience, cat. 1254), and 50 ng/mL human EGF recombinant protein (Thermo Fisher Scientific, cat. PHG0311). The 485176-168-R4-J1-PDC line was cultured in Panc media, which includes all 6C/Colon 1B media components plus 100 ng/mL human FGF-10 (Thermo Fisher Scientific, cat. 100-26), 500 nM SB-431542 (Selleckchem, cat. S1067), and gastrin (Tocris, cat. 3006).
[…]
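Note: spheroids exposed to compounds for seven days.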

Structure (SMILES)	viability, T/C (compound 0.0316 µM)	viability, T/C (compound 0.1 µM)	viability, T/C (compound 0.316 µM)	viability, T/C (compound 1 µM)	viability, T/C (compound 3.16 µM)	viability, T/C (compound 10 µM)	IC50	viability, T/C (compound 0.000999 µM)	viability, T/C (compound 0.00316 µM)	viability, T/C (compound 0.00999 µM)	viability, T/C (compound 0.0999 µM)
Cc1cccc(N(C)C(=O)C2C(O)CCN2c2nc(C)cc(C(F)(F)F)c2C#N)c1 (centres undefined)	93.2% and 106% and 100%	98.7% and 101% and 97.4%	105% and 106% (2×)	102% and 93.6% and 108%	110% and 108% and 113%	107% (2×) and 101%	> 10 µM	–	–	–	–
COc1ccc([C@@H](O)c2cc(-c3ncnc4cc(N5CCOCC5)ccc34)c(F)cc2Cl)nn1	110% and 102% and 111%	94.2% and 93% and 93.8%	103% and 91.3% and 98.6%	89% and 93.2% and 84%	76.2% and 71.4% and 65%	50.3% and 57.7% and 45.4%	> 10 µM and 7.77 µM	–	–	–	–
CC1COCCN1c1cc(C2(S(C)(=N)=O)CC2)nc(-c2ccnc3[nH]ccc23)n1 (centres undefined)	104% and 101% (2×)	108% (2×) and 109%	106% (2×) and 113%	100% and 96.2% and 104%	67.5% and 72.8% and 72.2%	30% and 37.2% and 31.8%	5.41 µM and 6.58 µM and 5.95 µM	–	–	–	–
CCCS(=O)(=O)Nc1ccc(F)c(C(=O)c2c[nH]c3ncc(-c4ccc(Cl)cc4)cc23)c1F	105% and 121% and 109%	108% and 104% and 96.3%	120% and 112% and 102%	111% and 113% and 112%	115% and 99.8% and 108%	7.3% and 7.67% and 14.8%	6.25 µM and 5.89 µM and 6.4 µM	–	–	–	–
CC[C@@]1(O)C(=O)OCc2c1cc1n(c2=O)Cc2cc3c(CN(C)C)c(O)ccc3nc2-1	63.9% and 62.8% and 59.8%	–	22% and 21.9% and 23.2%	–	–	–	0.0456 µM and 0.0442 µM and 0.0427 µM	104% (2×) and 105%	108% and 109% and 101%	97.4% and 95.7% and 98.8%	18.8% and 18.6% and 21.4%
COc1cc(C2c3cc4c(cc3C(OC3OC5COC(C)OC5C(O)C3O)C3COC(=O)C23)OCO4)cc(OC)c1O (centres undefined)	106% and 98.1% and 115%	94.7% and 92.3% and 78.7%	85.6% and 89.4% and 87.1%	55.2% and 52.1% and 61.5%	23.5% and 22.8% and 25.1%	15.8% and 12.7% and 15.5%	1.17 µM and 1.13 µM and 1.39 µM	–	–	–	–
O=C(c1cc(Cc2n[nH]c(=O)c3ccccc23)ccc1F)N1CCN(C(=O)C2CC2)CC1	101% and 114% and 107%	90.7% and 97.5% and 95.4%	91.1% and 97.2% and 91.3%	96.4% and 96.3% and 90.3%	83.8% and 88.4% and 87.7%	63.8% and 66.6% and 66.7%	> 10 µM	–	–	–	–
